# Assay results as given in patent US20040138160A1, “Preventive/therapeutic method for cancer” (priority 2001, published 2004).
# Tests used:
# HER2 = HER2 (Homo sapiens, UniProt P04626); conditions: BT-474 tumor in nude mice; 20 mg/kg/day orally 14 days, then 10 mg/kg; tumor sampled four hours later
# Procedure: Four hours later, the tumor was sampled and a tumor homogenate was prepared.
# MDA-MB-231 = conditions: breast, HER2 score 0; dose 20 mg/kg/day orally, divided into two per day, 14 days
# Procedure: (§1) An increase in the tumor volume from that before administration to that on the next day of the final administration was compared to that of the control group and an anti-tumor effect was studied. In addition, the tumor volume was calculated from the following equation:
# (§2) Formula: tumor volume=longer diameter×shorter diameter×shorter diameter×(1/2)
# (§3) A ratio of the value obtained by subtracting a tumor volume on the day of the administration initiation from the tumor volume on the next day of the completion of the administration in the control group, and the value obtained by subtracting the tumor volume on the day of the administration initiation from the tumor volume on the next day of the completion of the administration was determined as a growth rate (T/C (%)).
# [1] = test system: HER2 expression human non-parvicellular lung cancer A549 cells; test: Anti-tumor effect against HER2 expression tumor in nude mouse: A549; type: in vivo; conditions: HER2 score 1+, dose 20 mg/kg/day orally, divided into two per day, 14 days
# Procedure: Immediately after transplantation and day 7 after the transplantation, estradiol dipropionate (5 mg/kg solution, 50 μL) was intramuscularly administered to the hind leg with the aim of enhancing the survival rate of the tumor. […] HER2 high expression human gastric cancer cells 4-1ST was a in vivo subcultured tumor and seed tumor piece (ca. 50 mm^3) was subcutaneously transplanted into the nude mouse.
# as §2
# Jak1 = Jak1 (Homo sapiens, UniProt P23458); test: cell-based
# Jak1, sequence (P23458 whole entry): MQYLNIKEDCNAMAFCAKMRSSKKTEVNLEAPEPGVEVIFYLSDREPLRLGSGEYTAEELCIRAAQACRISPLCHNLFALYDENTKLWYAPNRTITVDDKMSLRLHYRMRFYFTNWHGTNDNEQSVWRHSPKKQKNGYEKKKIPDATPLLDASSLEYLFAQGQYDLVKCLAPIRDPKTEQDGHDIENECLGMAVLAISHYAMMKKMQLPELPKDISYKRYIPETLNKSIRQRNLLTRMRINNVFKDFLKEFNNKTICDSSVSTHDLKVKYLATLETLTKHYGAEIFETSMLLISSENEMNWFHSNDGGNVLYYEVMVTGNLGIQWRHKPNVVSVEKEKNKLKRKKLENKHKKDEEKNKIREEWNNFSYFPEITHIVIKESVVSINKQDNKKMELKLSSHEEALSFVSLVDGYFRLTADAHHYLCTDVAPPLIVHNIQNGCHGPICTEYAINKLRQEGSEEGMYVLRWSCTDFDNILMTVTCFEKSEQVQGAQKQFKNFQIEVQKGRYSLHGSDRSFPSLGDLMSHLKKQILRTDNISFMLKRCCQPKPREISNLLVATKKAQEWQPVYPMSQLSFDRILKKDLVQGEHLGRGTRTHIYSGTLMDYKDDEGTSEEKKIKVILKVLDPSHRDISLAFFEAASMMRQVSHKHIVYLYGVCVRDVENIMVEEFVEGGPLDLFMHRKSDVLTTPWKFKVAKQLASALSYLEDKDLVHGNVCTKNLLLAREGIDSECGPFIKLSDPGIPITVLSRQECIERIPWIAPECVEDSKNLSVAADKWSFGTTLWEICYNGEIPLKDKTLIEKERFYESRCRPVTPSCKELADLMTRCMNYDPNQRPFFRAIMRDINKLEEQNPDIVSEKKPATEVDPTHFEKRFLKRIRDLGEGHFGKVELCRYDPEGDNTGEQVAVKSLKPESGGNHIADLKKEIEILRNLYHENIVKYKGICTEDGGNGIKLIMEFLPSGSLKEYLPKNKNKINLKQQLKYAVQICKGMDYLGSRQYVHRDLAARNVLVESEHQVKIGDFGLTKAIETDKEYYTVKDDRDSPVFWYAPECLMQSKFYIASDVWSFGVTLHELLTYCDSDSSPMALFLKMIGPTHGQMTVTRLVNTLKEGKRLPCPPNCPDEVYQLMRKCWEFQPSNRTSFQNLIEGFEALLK
# Procedure: (§4) For consideration of the action on a receptor-type tyrosine kinase, A-431 cells or NIH3T3 cells were sown in a 24 multi-well plate (2×10^5 cells/well) and cultured overnight in a carbon dioxide gas incubator (5% CO2, 37° C.). The medium was changed to a serum-free medium and the cells were further incubated for one day. […] The culture medium was removed 5 min later and SDS sample buffer was added to give a cell lysate (200 μL). For consideration of the action on a non-receptor type tyrosine kinase, A431 (Jak1), Jurkat (Src) or Namalwa cells (Blk) were sown in a 6-well multi-well plate (5×10^5 cells/well) and cultured overnight in a carbon dioxide gas incubator (5% CO2, 37° C.).
# EGFR = EGFR (Homo sapiens, UniProt P00533); test: cell-based
# EGFR, sequence (P00533 25-1210): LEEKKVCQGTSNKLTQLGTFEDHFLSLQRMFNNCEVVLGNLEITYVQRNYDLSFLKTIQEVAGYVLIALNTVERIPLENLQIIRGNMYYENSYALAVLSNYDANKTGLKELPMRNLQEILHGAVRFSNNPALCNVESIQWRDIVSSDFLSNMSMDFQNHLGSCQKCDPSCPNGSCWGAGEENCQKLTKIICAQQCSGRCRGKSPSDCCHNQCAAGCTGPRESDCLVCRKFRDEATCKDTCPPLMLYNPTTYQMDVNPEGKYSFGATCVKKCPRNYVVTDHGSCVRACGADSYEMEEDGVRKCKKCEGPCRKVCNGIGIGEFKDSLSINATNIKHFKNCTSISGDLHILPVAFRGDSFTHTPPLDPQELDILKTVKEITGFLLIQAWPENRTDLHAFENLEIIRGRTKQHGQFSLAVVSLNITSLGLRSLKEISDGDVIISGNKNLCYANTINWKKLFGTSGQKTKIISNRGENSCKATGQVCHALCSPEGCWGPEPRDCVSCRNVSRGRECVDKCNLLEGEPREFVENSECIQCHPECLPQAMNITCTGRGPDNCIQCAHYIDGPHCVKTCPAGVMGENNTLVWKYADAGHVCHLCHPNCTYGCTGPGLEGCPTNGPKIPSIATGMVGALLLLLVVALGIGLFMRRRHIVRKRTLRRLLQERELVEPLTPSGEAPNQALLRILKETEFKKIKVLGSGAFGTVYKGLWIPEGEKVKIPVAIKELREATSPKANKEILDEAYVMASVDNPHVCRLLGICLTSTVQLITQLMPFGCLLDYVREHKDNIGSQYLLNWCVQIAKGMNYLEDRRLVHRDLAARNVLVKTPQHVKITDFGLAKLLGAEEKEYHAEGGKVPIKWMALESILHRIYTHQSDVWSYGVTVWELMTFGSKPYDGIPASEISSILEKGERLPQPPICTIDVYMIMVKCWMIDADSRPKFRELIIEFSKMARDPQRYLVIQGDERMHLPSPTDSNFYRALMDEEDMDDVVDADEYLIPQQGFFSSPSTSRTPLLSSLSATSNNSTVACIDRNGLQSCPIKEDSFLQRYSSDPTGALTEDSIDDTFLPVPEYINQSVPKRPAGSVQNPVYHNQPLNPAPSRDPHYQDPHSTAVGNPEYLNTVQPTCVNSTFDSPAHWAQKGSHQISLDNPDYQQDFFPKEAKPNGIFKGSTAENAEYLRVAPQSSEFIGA
# Procedure: as §4
# blk = blk (Homo sapiens, UniProt P51451); test: cell-based
# blk, sequence (P51451 whole entry): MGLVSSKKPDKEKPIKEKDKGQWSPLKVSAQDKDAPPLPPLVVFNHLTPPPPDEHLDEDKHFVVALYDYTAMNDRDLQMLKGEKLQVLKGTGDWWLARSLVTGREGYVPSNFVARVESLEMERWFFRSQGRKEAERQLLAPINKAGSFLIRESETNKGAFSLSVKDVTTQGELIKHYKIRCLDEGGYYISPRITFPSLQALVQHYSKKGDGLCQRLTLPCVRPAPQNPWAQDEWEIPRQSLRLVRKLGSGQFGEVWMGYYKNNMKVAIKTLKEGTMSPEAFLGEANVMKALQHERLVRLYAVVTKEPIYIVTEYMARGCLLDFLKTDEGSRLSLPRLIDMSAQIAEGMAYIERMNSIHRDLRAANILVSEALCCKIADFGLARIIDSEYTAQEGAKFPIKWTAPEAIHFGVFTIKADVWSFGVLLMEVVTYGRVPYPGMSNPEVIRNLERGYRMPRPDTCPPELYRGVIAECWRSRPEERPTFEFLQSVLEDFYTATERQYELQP
# Procedure: as §4
# [2] = test system: HER2 expression cells (Ma-46); conditions: cultured 3 days, cells counted
# Procedure: (§5) 1) Cell growth inhibitory action; Each cell line was sown in a 24-well-multi-well plate (5×10^4 cells/well) and cultured overnight in a carbon dioxide gas incubator (5% CO2, 37° C.).
# [3] = test system: HER2 non-expression cells (Ma-1); conditions: cultured 3 days, cells counted
# Procedure: as §5
# [4] = test system: HER2/EGF-R co-expression cells (A549); conditions: cultured 3 days, cells counted
# Procedure: as §5
# Akt = test: cells; conditions: Homo sapiens, BT-474, 2 h, read-out: inhibition of activation of Akt (IC50 value)
# [5] = test system: HER2 high expression human breast cancer cells BT-474; conditions: HER2 score 3+, dose 20 mg/kg/day orally, divided into two per day, 14 days
# Procedure: (§6) Immediately after transplantation and day 7 after the transplantation, estradiol dipropionate (5 mg/kg solution, 50 μL) was intramuscularly administered to the hind leg with the aim of enhancing the survival rate of the tumor. HER2 expression human non-parvicellular lung cancer A549 cells were suspended in Matrigel solution and 5,000,000 cells were subcutaneously transplanted into the chest of female BALB/c nude mouse (6 weeks of age). HER2 expression human kidney cancer ACHN cells (2,000,000 cells) were subcutaneously transplanted into the chest of nude mouse. HER2 high expression human gastric cancer cells 4-1ST was a in vivo subcultured tumor and seed tumor piece (ca. 50 mm^3) was subcutaneously transplanted into the nude mouse.
# as §1, §2, §3
# [6] = test system: HER2 expression human kidney cancer ACHN cells; conditions: renal, HER2 score 1+; dose 20 mg/kg/day orally, divided into two per day, 14 days
# Procedure: as §6, §1, §2, §3
# [7] = test system: HER2 high expression human gastric cancer cells 4-1ST; conditions: HER2 score 3+, dose 15 mg/kg/day orally, divided into two per day, 14 days
# Procedure: as §6, §1, §2, §3
# [8] = test system: HER2 high expression human breast cancer cell BT-474; test: Anti-tumor effect, combined use (BT-474 cancer-bearing nude mice); type: in vivo, mouse
# Source text: Formula: Tumor volume=longer diameter×shorter diameter×shorter diameter×(1/2)
# [9] = test system: HER2 high expression human breast cancer cells BT-474; conditions: 1 μmol/L, cultured ~5 days
# Procedure: After the culture, the culture medium was removed and a cell suspension was prepared by a trypsin treatment and the cells were fixed with 70% ethanol. The DNA of the cells was stained with propidium iodide and the DNA amount was measured by a flow cytometer. The cells with a decreased amount of DNA are apoptotic (cell death) cells.
# PDGFR = conditions: read-out: IC50 (μmol/L) PDGFR; NIH3T3 cells, PDGF 20 ng/mL; compound 2 hr
# Procedure: as §4
# [10] = test system: tyrosine kinase activity other than HER2; conditions: read-out: IC50 value for tyrosine kinase activity other than HER2; in every case (EGFR, FGFR, PDGFR, Jak1, Src, blk)
# Procedure: as §4
# FGFR = conditions: read-out: IC50 (μmol/L) FGFR; NIH3T3 cells, FGF 20 ng/mL; compound 2 hr
# Procedure: as §4
# HER2, sequence (P04626 23-1255): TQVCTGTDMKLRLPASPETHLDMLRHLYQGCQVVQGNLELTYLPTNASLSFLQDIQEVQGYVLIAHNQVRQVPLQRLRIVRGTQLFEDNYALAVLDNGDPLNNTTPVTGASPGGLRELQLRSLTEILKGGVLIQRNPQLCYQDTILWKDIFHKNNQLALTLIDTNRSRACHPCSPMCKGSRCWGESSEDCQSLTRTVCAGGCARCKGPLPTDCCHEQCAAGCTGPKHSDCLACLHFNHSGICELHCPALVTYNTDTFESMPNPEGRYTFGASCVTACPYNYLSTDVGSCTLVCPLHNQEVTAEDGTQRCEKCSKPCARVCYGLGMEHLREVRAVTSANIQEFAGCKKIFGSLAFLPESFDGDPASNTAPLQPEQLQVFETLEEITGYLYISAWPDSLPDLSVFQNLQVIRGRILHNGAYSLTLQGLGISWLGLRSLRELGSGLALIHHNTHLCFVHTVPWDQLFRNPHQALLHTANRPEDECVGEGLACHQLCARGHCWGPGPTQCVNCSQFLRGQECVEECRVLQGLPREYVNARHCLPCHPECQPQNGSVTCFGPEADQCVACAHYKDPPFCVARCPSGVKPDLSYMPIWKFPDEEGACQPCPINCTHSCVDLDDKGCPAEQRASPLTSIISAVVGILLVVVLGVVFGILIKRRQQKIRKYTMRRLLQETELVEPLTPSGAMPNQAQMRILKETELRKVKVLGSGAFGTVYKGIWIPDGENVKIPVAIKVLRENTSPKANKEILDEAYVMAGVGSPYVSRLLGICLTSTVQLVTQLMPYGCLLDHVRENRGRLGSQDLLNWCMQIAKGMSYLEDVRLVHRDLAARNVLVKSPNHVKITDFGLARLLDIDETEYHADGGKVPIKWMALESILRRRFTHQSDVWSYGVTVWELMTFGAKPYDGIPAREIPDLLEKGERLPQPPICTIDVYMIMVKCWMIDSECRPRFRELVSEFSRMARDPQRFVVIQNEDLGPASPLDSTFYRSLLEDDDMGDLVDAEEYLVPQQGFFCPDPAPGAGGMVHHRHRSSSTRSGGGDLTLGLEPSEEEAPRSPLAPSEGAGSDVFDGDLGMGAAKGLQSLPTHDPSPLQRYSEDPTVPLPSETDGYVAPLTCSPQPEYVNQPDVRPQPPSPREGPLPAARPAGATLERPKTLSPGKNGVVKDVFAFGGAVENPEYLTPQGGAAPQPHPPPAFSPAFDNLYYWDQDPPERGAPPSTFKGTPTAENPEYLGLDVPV
smiles,measurement,setting,value
"FC(F)(F)c1ccc(/C=C/c2nc(COc3ccc(CCCCn4ccnn4)cc3)co2)cc1 [Compound B4, 1-(4-{4-[(2-{(E)-2-[4-(trifluoromethyl)phenyl]ethenyl}-1,3-oxazol-4-yl)methoxy]phenyl}butyl)-1H-1,2,3-triazole]","intra-tumor HER2 phosphorylation (per tumor weight), % of the control group",HER2,13%
same,"Compound B4 T/C (%), MDA-MB-231",MDA-MB-231,87%
same,"Compound B4 T/C (%), A549",[1],22%
same,IC50,Jak1,> 25 µM
same,IC50,EGFR,> 25 µM
same,IC50,blk,> 25 µM
same,cell growth inhibitory action on HER2 expression cells (Ma-46),[2],strong cell growth inhibitory action
same,cell growth inhibitory action on HER2 non-expression cells (Ma-1),[3],did not show a cell growth inhibitory action
same,cell growth inhibitory action on HER2/EGF-R co-expression cells (A549),[4],strong cell growth inhibitory action
same,IC50,Akt,0.0019 µM
same,"Compound B4 T/C (%), BT-474",[5],−18%
same,"Compound B4 T/C (%), ACHN",[6],−16%
same,"Compound B4 T/C (%), 4-1ST",[7],4%
same,growth rate T/C (%),"[8]; compound B4 20 mg/kg/day orally, divided into two per day, 14 days, trastuzumab 10 mg/kg intraperitoneally twice a week, 2 weeks, or both",−18%
same,cases with significant decrease in the tumor volume,[8]; same regimens as T/C,5 cases out of 5 cases
same,decrease in the tumor volume (% reduction),[8]; same regimens as T/C,13-30%
same,cell death induction,[9],induced cell death
same,IC50,PDGFR,> 25 µmol/L
same,IC50,[10],> 25 µM
same,IC50,FGFR,> 25 µmol/L
